Patent publication US20080070946A1, “Hydroxymethylbenzothiazoles Amides” (AstraZeneca AB, priority 2004, published 2008)

Legend:
hVR1 = target: T1, hVR1 (Homo sapiens, UniProt Q8NER1); assay: hVR1 FLIPR (Fluorometric Image Plate Reader) screening assay, IC50 determination; assay type: cell-based; conditions: CHO cells stably expressing hVR1
T1 construct: expressed in transfected cells
Experimental: 1. hVR1 FLIPR (Fluorometric Image Plate Reader) Screening Assay
Transfected CHO cells, stably expressing hVR1 (15,000 cells/well) are seeded in 50 ul media in a black clear bottom 384 plate (Greiner) and grown in a humidified incubator (37° C., 2% CO2), 24-30 hours prior to experiment.
Subsequently, the media is removed from the cell plate by inversion and 2 μM Fluo-4 is added using a multidrop (Labsystems). Following the 40 minutes dye incubation in the dark at 37° C. and 2% CO2, the extracellular dye present is washed away using an EMBLA (Scatron), leaving the cells in 40 ul of assay buffer (1× HBSS, 10 mM D-Glucose, 1 mM CaCl2, 10 mM HEPES, 10×7.5% NaHCO3 and 2.5 mM Probenecid).
FLIPR Assay—IC50 Determination Protocol
For IC50 determinations the fluorescence is read using FLIPR filter 1 (em […]). A cellular baseline recording is taken for 30 seconds, followed by a 20 μl addition of 10, titrated half-log concentrations of the test compound, yielding cellular concentration ranging from 3 μM to 0.1 nM. Data is collected every 2 seconds for a further 5 minutes prior to the addition of a VR1 agonist solution: either 50 nM solution of capsaicin or MES (2-[N-morpholino]ethanesulfonic acid) buffer (pH 5.2), by the FLIPR pipettor. The FLIPR continues to collect data for a further 4 minutes. Compounds having antagonistic properties against the hVR1 will inhibit the increase in intracellular calcium in response to the capsaicin addition. This consequently leading to a reduction in fluorescence signal and providing a reduced fluorescence reading, compared with no compound, buffer controls. Data is exported by the FLIPR program as a sum of fluorescence calculated under the curve upon the addition of capsaicin. Maximum inhibition, Hill slope and IC50 data for each compound are generated.

[1] = Metabolic stability in rat hepatocytes (intrinsic clearance); assay type: in vitro ADME; conditions: male, Sprague-Dawley, freshly isolated rat hepatocytes, read-out: rClint hep
Experimental: Metabolic Stability in Rat Hepatocytes
Cells source: in house fresh isolated rat hepatocytes from male sprague-Dawley.
1 μM of compound incubated in Krebs-Heinsleit buffer with 1×10^6 cells in 37° C. for 0, 15, 30, 60 and 90 min. A total volume of each incubation was 100 μL containing 0.1% DMSO. The reaction was stopped by adding 100 μL acetonitrile.
After reaction was stopped. The sample was centrifuged at 1900 g for 5 min. Supernatant was transferred to a clean tube for analysis.

T1 sequence (Q8NER1 whole entry): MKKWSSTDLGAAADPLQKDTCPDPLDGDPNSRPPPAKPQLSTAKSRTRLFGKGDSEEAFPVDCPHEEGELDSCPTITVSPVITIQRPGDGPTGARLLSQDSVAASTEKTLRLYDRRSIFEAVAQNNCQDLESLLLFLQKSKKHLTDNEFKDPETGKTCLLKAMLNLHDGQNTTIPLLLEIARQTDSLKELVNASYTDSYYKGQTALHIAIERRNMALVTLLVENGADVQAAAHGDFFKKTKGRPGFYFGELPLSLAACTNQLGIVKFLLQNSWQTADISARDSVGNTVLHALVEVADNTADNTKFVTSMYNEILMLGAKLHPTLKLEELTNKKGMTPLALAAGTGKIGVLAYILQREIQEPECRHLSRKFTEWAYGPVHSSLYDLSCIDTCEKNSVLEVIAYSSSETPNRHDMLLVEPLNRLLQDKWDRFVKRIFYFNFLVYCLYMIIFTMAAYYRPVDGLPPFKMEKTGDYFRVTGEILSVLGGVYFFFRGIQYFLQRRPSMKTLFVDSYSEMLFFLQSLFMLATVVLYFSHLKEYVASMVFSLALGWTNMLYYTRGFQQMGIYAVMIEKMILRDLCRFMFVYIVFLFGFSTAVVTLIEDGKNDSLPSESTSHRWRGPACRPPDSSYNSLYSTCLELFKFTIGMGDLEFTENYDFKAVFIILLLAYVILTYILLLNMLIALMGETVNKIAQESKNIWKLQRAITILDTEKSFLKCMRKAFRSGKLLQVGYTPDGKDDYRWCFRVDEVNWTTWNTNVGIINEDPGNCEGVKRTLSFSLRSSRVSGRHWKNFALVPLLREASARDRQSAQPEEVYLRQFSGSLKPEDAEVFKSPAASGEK

Compound | IC50 (hVR1; agonist capsaicin) | IC50 (hVR1; agonist pH 5.2 buffer) | Hepatocyte intrinsic clearance at 1 μM [1]
O=C(Nc1ccc2sc(CO)nc2c1)c1ccc(OC(F)(F)C(F)F)cc1 [Example 5, N-[2-(hydroxymethyl)-1,3-benzothiazol-5-yl]-4-(1,1,2,2-tetrafluoroethoxy)benzamide] | 0.008 µM | – | –
O=C(Nc1ccc2sc(CO)nc2c1)c1ccc(C2CCCCC2)cc1 [Example 6, 4-Cyclohexyl-N-[2-(hydroxymethyl)-1,3-benzothiazol-5-yl]benzamide] | 0.023 µM | – | –
O=C(Nc1ccc2sc(CO)nc2c1)c1ccc(N2CCCCC2)nc1 [Example 9, N-[2-(hydroxymethyl)-1,3-benzothiazol-5-yl]-6-piperidin-1-ylnicotinamide] | 0.086 µM | – | –
CN(C)c1ccc(C(=O)Nc2ccc3sc(CO)nc3c2)c2ccccc12 [Example 10, 4-(dimethylamino)-N-[2-(hydroxymethyl)-1,3-benzothiazol-5-yl]-1-naphthamide] | 0.054 µM | – | 14 µL/min/mg
Cc1cc(OC(C)(C)C)ccc1C(=O)Nc1ccc2sc(CO)nc2c1 [Example 23, 4-tert-butoxy-N-[2-(hydroxymethyl)-1,3-benzothiazol-5-yl]-2-methylbenzamide] | 0.059 µM | – | 22 µL/min/mg
Cc1cc(OC(C)C)ccc1C(=O)Nc1ccc2sc(CO)nc2c1 [Example 24, N-[2-(hydroxymethyl)-1,3-benzothiazol-5-yl]-4-isopropoxy-2-methylbenzamide] | 0.047 µM | – | 10 µL/min/mg

More lines, now with the values ahead:

IC50 (hVR1; agonist capsaicin) | IC50 (hVR1; agonist pH 5.2 buffer) | Hepatocyte intrinsic clearance at 1 μM [1] | Compound
0.004 µM | – | – | O=C(Nc1ccc2sc(CO)nc2c1)c1ccc(C(F)(F)F)c(F)c1 [Example 7, 3-Fluoro-N-[2-(hydroxymethyl)-1,3-benzothiazol-5-yl]-4-(trifluoromethyl)benzamide]
– | 0.417 µM | – | O=C(Nc1ccc2sc(CO)nc2c1)c1ccc(C(F)(F)F)nc1 [Example 8, N-[2-(hydroxymethyl)-1,3-benzothiazol-5-yl]-6-(trifluoromethyl)nicotinamide]
0.067 µM | – | 11.8 µL/min/mg | Cc1cc(OC(C)C)ccc1C(=O)Nc1ccc2sc(CO)nc2c1F [Example 40, N-[4-fluoro-2-(hydroxymethyl)-1,3-benzothiazol-5-yl]-4-isopropoxy-2-methylbenzamide]
1.95 µM | – | – | Cc1nc(C(F)(F)F)ccc1C(=O)Nc1ccc2sc(CO)nc2c1F [Example 41, N-[4-fluoro-2-(hydroxymethyl)-1,3-benzothiazol-5-yl]-2-methyl-6-(trifluoromethyl)nicotinamide]
0.904 µM | – | – | O=C(Nc1ccc2sc(CO)nc2c1F)c1ccc(C(F)(F)F)nc1 [Example 42, N-[4-fluoro-2-(hydroxymethyl)-1,3-benzothiazol-5-yl]-6-(trifluoromethyl)nicotinamide]
0.489 µM | – | – | O=C(Nc1ccc2sc(CO)nc2c1F)c1ccc(OCC(F)(F)F)nc1 [Example 43, N-[4-fluoro-2-(hydroxymethyl)-1,3-benzothiazol-5-yl]-6-(2,2,2-trifluoroethoxy)nicotinamide]
